The target in the experiment is G-protein coupled estrogen receptor 1 (Homo sapiens) (UniProt Q99527). As to the kind of experiment: GPR30 agonists and antagonists by calcium flux, primary screen, HL-60 cells, Indo-1 fluorescence, 10 µM (AID 1213). The following applies: Indo-1 calcium mobilization, at 10 µM; for calcium mobilization (agonist): stronger effect = higher value; for inhibition of estrogen-induced calcium mobilization (higher = more inhibition): measured here: antagonist mode response. A general note: A change in cytosolic calcium serves as a functional read-out for many receptors and channels.

Inconclusive results are not listed. Activity calls are given as the source filed them.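 The calls were made as follows: active = compound giving calcium release at least equal to the estrogen response, or cutting estrogen-driven calcium release by 60% or more; inconclusive = compound glowing brighter than the detergent maximum; inactive = the rest.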

As for `Nc1ncnc2c1ncn2C1CCC(CO)C(O)C1` (stereo not drawn), the calcium mobilization (agonist) was 0% (inactive).
Same read-out and setting: as for `Fc1ccc2c(c1)[C@H]1OCC[C@H]1[C@@H](c1ccco1)N2`, the figure is 100%.
In the case of `O=C(O)c1ccc(NS(=O)(=O)c2ccc3c(c2)C2C=CCC2C(c2ccccc2F)N3)cc1` (stereo not drawn), the calcium mobilization (agonist) is 0% (inactive) and the inhibition of estrogen-induced calcium mobilization (higher = more inhibition) was 50%.
Consider `O=C(NC1CC1)c1ccc2c(c1)C1C3CCC(C3)C1C(c1ccccc1)N2` (stereo not drawn), for which the calcium mobilization (agonist) was 100%.
The same measure, in the same setting: as for `CC(C)C1Nc2ccc(S(N)(=O)=O)cc2C2C=CCC21` (stereo not drawn), the figure is 0% (inactive).
The same measure, in the same setting: as for `CC(C)(C)NC(=O)c1ccc2c(c1)C1C3CCC(C3)C1C(c1ccccc1)N2` (stereo not drawn), the figure is 100%.
The same measure, in the same setting: for `C[C@H]1CCC[C@@H](O)CCC/C=C/c2cc(O)cc(O)c2C(=O)O1` the value was 50% (inactive); for `O=C(O)C1Nc2c(C(=O)N3CCOCC3)cccc2C2C=CCC12` (stereo not drawn), 0% (inactive).
With `O=S(=O)(NCCc1csc(-c2cccnc2)n1)c1ccc(Cl)s1`, the calcium mobilization (agonist) is 100%.
On the same count and under the same terms, for `CCCC1Nc2ccc(C(=O)O)cc2C2C=CCC12` (stereo not drawn) the value was 0% (inactive); for `Oc1ccc(-c2nc3ccc4ccccc4c3c3c2CCC3)cc1O`, 0% (inactive).
Take `CCC(=O)Oc1ccc(/C(CC)=C(\CC)c2ccc(OC(=O)CC)cc2)cc1`: the calcium mobilization (agonist) was 0% (inactive) and the inhibition of estrogen-induced calcium mobilization (higher = more inhibition) came out at 50%.
The like results for `Cc1c(Cl)cccc1NS(=O)(=O)c1ccc2c(c1)C1C=CCC1C(c1ccc(C(=O)O)cc1)N2` (stereo not drawn) were, in that order, 0% and 100%.
For `COc1ccc(C(=O)N/N=C(\C)c2ccc3c(c2)C2C=CCC2C(c2ccccc2)N3)cc1` (stereo not drawn) the same measures were 50% (inactive) and 50%.
The like results for `Cc1ccc2c(c1Cl)NC(C(=O)O)C1CC(Sc3ccccc3[N+](=O)[O-])C(Cl)C21` (stereo not drawn) were, in that order, 0% and 100%.
On to `Fc1ccc2c(c1)C1C=CCC1C(c1cc3c(cc1Br)OCO3)N2` (stereo not drawn), for which the calcium mobilization (agonist) was 100%.
The same measure, in the same setting: as for `Cc1nn(-c2ccccc2)c(/N=C/c2ccc(O)cc2)c1-c1ccccc1`, the figure is 0% (inactive).
Same read-out and setting: for `O=C(O)C1Nc2c(O)cc(Cl)c([N+](=O)[O-])c2C2C=CCC12` (stereo not drawn) the value was 0% (inactive); for `CCCNC(=O)c1ccc2c(c1)C1C3CCC(C3)C1C(c1ccccc1)N2` (stereo not drawn), 100%; for `O=C(O)c1ccc2c(c1)[C@@H]1C=CC[C@@H]1[C@H](c1ccccn1)N2`, 0% (inactive).
Regarding `CCNC(=O)c1ccc2c(c1)C1C3CCC(C3)C1C(c1ccccc1)N2` (stereo not drawn), the calcium mobilization (agonist) is 100%.
Still for that read-out and setting: as for `CC(=O)c1ccc2c(c1)C1C=CCC1C(C(=O)O)N2` (stereo not drawn), the figure is 0% (inactive); as for `CCn1nnc(NC(=O)CSc2ccc(Cl)cc2)n1`, 0% (inactive).
Turning to `CC(=O)Nc1ccc(OC(=O)CC2SC(=O)NC2=O)cc1` (stereo not drawn), the calcium mobilization (agonist) is 0% (inactive).
Same read-out and setting: for `CCC(=O)Oc1ccc(C(CC)C(CC)c2ccc(OC(=O)CC)cc2)cc1` (stereo not drawn) the value was 0% (inactive); for `Cc1cc(-c2nn3c(-c4ccccc4)nnc3s2)c2ccccc2n1`, 0% (inactive).
On to `NS(=O)(=O)c1ccc2c(c1)C1C=CCC1C(C1CC=CCC1)N2` (stereo not drawn), for which the calcium mobilization (agonist) is 0% (inactive).
Same read-out and setting: as for `COc1ccc(CNC(=O)c2cc(-c3cccs3)on2)cc1`, the figure is 0% (inactive).
In the case of `COc1cccc(NS(=O)(=O)c2ccc3c(c2)C2C=CCC2C(c2ccc(C(=O)O)cc2)N3)c1` (stereo not drawn), the calcium mobilization (agonist) is 0% and the inhibition of estrogen-induced calcium mobilization (higher = more inhibition) was determined as 100%.
The like results for `Cc1ccc2c(c1)[C@H]1OCC[C@H]1[C@@H](c1ccncc1)N2` were, in that order, 0% (inactive) and 50%.
Regarding `Cc1cc(C)cc(OCC(=O)Nc2ccc(N3CCCC3)cc2)c1`, the calcium mobilization (agonist) was 0% (inactive).
The same measure, in the same setting: as for `O=C(c1cc2ncc(Br)cn2n1)N1CCN(C(=O)c2ccco2)CC1`, the figure is 0% (inactive); as for `CC(=O)c1ccc2c(c1)C1C(Cl)C(Sc3ccccc3[N+](=O)[O-])CC1C(c1ccccc1)N2` (stereo not drawn), 0% (inactive); as for `Cc1cc(C(=O)Nc2sc3c(c2C#N)CCC3)no1`, 0% (inactive).
Turning to `Cc1cc(C)c2c(c1)[C@@H]1C=CC[C@@H]1[C@H](c1ccc(S(=O)(=O)N3CCOCC3)cc1)N2`, the calcium mobilization (agonist) was 0% and the inhibition of estrogen-induced calcium mobilization (higher = more inhibition) is 100%.
For the compound `COc1ccc(OC)c(C2Nc3c(Cl)ccc(C(=O)O)c3C3C=CCC32)c1` (stereo not drawn), the calcium mobilization (agonist) was 50% (inactive).
On the same count and under the same terms, for `Oc1ccc(-c2nc(-c3ccc(O)c(O)c3)cs2)cc1` the value was 0% (inactive).
For `C[C@]12CC[C@@H]3c4ccc(O)cc4[C@@H](O)C[C@H]3[C@@H]1CC[C@@H]2O`, the calcium mobilization (agonist) is 0% (inactive).
With `Cc1cc(C)c2c(c1)NC(c1cc3c(cc1Br)OCO3)C1CC=CC21` (stereo not drawn), the calcium mobilization (agonist) was 50% (inactive).
Same read-out and setting: for `CCc1nc2sc3ccccc3c(=O)c2c(=O)n1Cc1ccco1` the value was 0% (inactive).
`O=C(OC1CCCCC1)c1ccc2c(c1)C1C=CCC1C(C(=O)O)N2` (stereo not drawn): the calcium mobilization (agonist) was 0% (inactive).
The same measure, in the same setting: for `Cn1ccnc1SCC(=O)Nc1ccc2nc(SCC(=O)NC3CC3)sc2c1` the value was 0% (inactive); for `O=C(O)c1ccc(Cl)c2c1C1C=CCC1C(c1ccccn1)N2` (stereo not drawn), 50% (inactive).
Still for that read-out and setting: as for `Cc1cc([N+](=O)[O-])c2c(c1C)C1C=CCC1C(c1ccccn1)N2` (stereo not drawn), the figure is 0% (inactive); as for `N=C1C(c2nc3ccccc3[nH]2)=C(O)CN1c1ccc(CC(=O)O)cc1`, 0% (inactive); as for `CCCCCCNC(=O)c1cc(-c2ccco2)nc2ccccc12`, 0% (inactive).
On the same count and under the same terms, as for `CC(C)c1ccc2c(c1)[C@H]1OCC[C@H]1[C@@H](c1cccs1)N2`, the figure is 0% (inactive).
For `CC(C)C1Nc2c(O)cc(Cl)c([N+](=O)[O-])c2C2C=CCC21` (stereo not drawn), the calcium mobilization (agonist) is 100%.
For the compound `CC(C)C1Nc2ccc(C(=O)O)cc2C2C=CCC21` (stereo not drawn), the calcium mobilization (agonist) was 0% and the inhibition of estrogen-induced calcium mobilization (higher = more inhibition) is 100%.
`O=C(O)c1ccc2c(c1)C1C=CCC1C(c1cc3c(cc1Br)OCO3)N2` (stereo not drawn): the calcium mobilization (agonist) is 100%.
On the same count and under the same terms, as for `CN(C)C(=O)c1ccc2c(c1)C1C3CCC(C3)C1C(c1ccccc1)N2` (stereo not drawn), the figure is 100%; as for `CC(=O)c1ccc2c(c1)C1C=CCC1C(c1ccncc1)N2` (stereo not drawn), 100%.
`O=C1NC(c2ccc(Br)cc2)Nc2sc3c(c21)CCC3` (stereo not drawn): the calcium mobilization (agonist) was 50% (inactive) and the inhibition of estrogen-induced calcium mobilization (higher = more inhibition) was determined as 50%.
As to `CCOC(=O)c1ccc2c(c1)C1C=CCC1C(C(=O)O)N2` (stereo not drawn), the calcium mobilization (agonist) is 0% (inactive).
Regarding `O=C(O)C1Nc2c(O)cccc2C2C=CCC12` (stereo not drawn), the calcium mobilization (agonist) is 50% (inactive).
As for `COc1cccc(C2Nc3c(F)cc(Br)cc3C3C=CCC32)c1OC` (stereo not drawn), the calcium mobilization (agonist) was 0% (inactive).
Regarding `O=C(COC(=O)CCC(=O)c1cccs1)NCc1ccco1`, the calcium mobilization (agonist) is 0% (inactive).
For `FC(F)(F)c1ccc2c(c1)C1C=CCC1C(c1ccncc1)N2` (stereo not drawn), the calcium mobilization (agonist) was 0% (inactive) and the inhibition of estrogen-induced calcium mobilization (higher = more inhibition) amounted to 50%.
On to `COc1cccc2c1NC(C(=O)O)C1CC=CC21` (stereo not drawn), for which the calcium mobilization (agonist) is 0% (inactive).
For `O=C(O)c1ccc2c(c1)C1C(Cl)C(Sc3ccccc3[N+](=O)[O-])CC1C(c1cccc([N+](=O)[O-])c1)N2` (stereo not drawn), the calcium mobilization (agonist) was 0% and the inhibition of estrogen-induced calcium mobilization (higher = more inhibition) is 100%.
`COc1ccc(NC(=O)C(c2ccccc2)N(C)C(=O)c2ccc(=O)[nH]c2)cc1` (stereo not drawn): the calcium mobilization (agonist) was 0% (inactive).
Same read-out and setting: as for `CCc1ccc(-c2nn(-c3ccccc3)cc2CSC(=N)N)cc1`, the figure is 50% (inactive); as for `CC(=O)c1ccc2c(c1)C1C=CCC1C(c1ccc(S(=O)(=O)N3CCOCC3)cc1)N2` (stereo not drawn), 100%; as for `CCCCOC(=O)c1c(C)oc2ccc(NS(=O)(=O)c3ccc4c5c(cccc35)C(=O)N4)cc12`, 0% (inactive).
Turning to `CC(=O)N1c2ccc(Cl)cc2C2C=CCC2C1c1cccc2ccccc12` (stereo not drawn), the calcium mobilization (agonist) was 100%.
Take `Cc1ccc2c(c1)C1C=CCC1C(C(=O)O)N2` (stereo not drawn): the calcium mobilization (agonist) was 0% (inactive) and the inhibition of estrogen-induced calcium mobilization (higher = more inhibition) was found to be 50%.
With `O=C(Cc1cccs1)Nc1ccc(S(=O)(=O)Nc2ncccn2)cc1`, the calcium mobilization (agonist) is 0% (inactive).
Turning to `O=C(Nc1cc(C(F)(F)F)ccc1N1CCOCC1)C1Cc2ccccc2CN1C(=O)c1ccco1` (stereo not drawn), the calcium mobilization (agonist) was 0% (inactive).
On the same count and under the same terms, for `O=C(O)c1cc(Cl)c2c(c1)[C@@H]1C=CC[C@@H]1[C@H](c1ccc(S(=O)(=O)N3CCOCC3)cc1)N2` the value was 0% (inactive).
Take `Cc1ccc2c(c1C)NC(C(=O)O)C1CC=CC21` (stereo not drawn): the calcium mobilization (agonist) was 0% and the inhibition of estrogen-induced calcium mobilization (higher = more inhibition) stood at 100%.
On to `Cc1nnc(SCC(=O)NC(=O)NCc2ccco2)n1Cc1ccccc1`, for which the calcium mobilization (agonist) was 0% (inactive).
Still for that read-out and setting: for `COc1ccc2c(c1)C1C=CCC1C(c1cc3c(cc1Br)OCO3)N2` (stereo not drawn) the value was 100%.
Same read-out and setting: as for `CCc1ccc2c(c1)[C@H]1OCC[C@H]1[C@@H](c1cccs1)N2`, the figure is 50% (inactive).
Same read-out and setting: for `C[C@]12CC[C@@H]3c4ccc(O)cc4C(=O)C[C@H]3[C@@H]1CC[C@@H]2O` the value was 0% (inactive).

(Values after PubChem BioAssay AID1213 (NMMLSC, 2008).)
